Format in all cases: in vivo
The test system of assay [1] is Alopecurus myosuroides (ALOMY). As to the kind of experiment: Pre-emergence biological efficacy, glasshouse pot test. The conditions noted are these: 312 h, 1,000 g/ha, evaluated after 13 days, 100=total damage, 0=no damage, read-out: Percentage damage caused to weed species, pre-emergence, ALOMY. The method, boiled down: (§1)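 Sow seeds in pots of standard soil; hold one day at 24/16 °C, 14 h light, 65% humidity. Spray compound at 1000 or 250 g/ha (acetone/water 50:50, 0.5% Tween 20). Grow on under the same conditions, watering twice daily, and score damage at day 13.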

Assay [2] concerns Amaranthus retroflexus (AMARE). The description is as above. The conditions noted are these: 312 h, 1,000 g/ha, evaluated after 13 days, 100=total damage, 0=no damage, read-out: Percentage damage caused to weed species, pre-emergence, AMARE. In short, it runs like this:
as §1

In assay [3] the test system is Echinochloa crus-galli (ECHCG). The assay is described as above. The conditions noted are these: 312 h, 1,000 g/ha, evaluated after 13 days, 100=total damage, 0=no damage, read-out: Percentage damage caused to weed species, pre-emergence, ECHCG. In short, it runs like this: as §1
In assay [4] the test system is Ipomea hederaceae (IPOHE). The assay is described as above. The conditions noted are these: Ipomoea hederacea, 312 h, 1,000 g/ha, evaluated after 13 days, 100=total damage, 0=no damage, read-out: Percentage damage caused to weed species, pre-emergence, IPOHE. In short, it runs like this:
as §1

In assay [5] the test system is Setaria faberi (SETFA). Described as above. The conditions noted are these: 312 h, 1,000 g/ha, evaluated after 13 days, 100=total damage, 0=no damage, read-out: Percentage damage caused to weed species, pre-emergence, SETFA. In short, it runs like this:
as §1

In assay [6] the test system is Solanum nigrum (SOLNI). The description is as above. The conditions noted are these: 312 h, 1,000 g/ha, evaluated after 13 days, 100=total damage, 0=no damage, read-out: Percentage damage caused to weed species, pre-emergence, SOLNI. The method, boiled down:
as §1

Assay [7] concerns Alopecurus myosuroides (ALOMY). As to the kind of experiment: Post-emergence biological efficacy, glasshouse pot test. The conditions noted are these: 312 h, 1,000 g/ha, evaluated after 13 days, 100=total damage, 0=no damage, read-out: Percentage damage caused to weed species, post-emergence, ALOMY. The method, boiled down: (§2)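 Visual damage ratings (100 total kill, 0 no effect) were taken 13 days after spraying. Plants had been grown 8 days from seed before a single application of 1000 or 250 g/ha in aqueous acetone (50:50) containing 0.5% Tween 20.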

In assay [8] the test system is Amaranthus retroflexus (AMARE). The description is as above. The conditions noted are these: 312 h, 1,000 g/ha, evaluated after 13 days, 100=total damage, 0=no damage, read-out: Percentage damage caused to weed species, post-emergence, AMARE. The method, boiled down:
as §2

The subject of assay [9] is Echinochloa crus-galli (ECHCG). The description is as above. The conditions noted are these: 312 h, 1,000 g/ha, evaluated after 13 days, 100=total damage, 0=no damage, read-out: Percentage damage caused to weed species, post-emergence, ECHCG. In short, it runs like this: as §2
In assay [10] the test system is Ipomea hederaceae (IPOHE). The description is as above. The conditions noted are these: Ipomoea hederacea, 312 h, 1,000 g/ha, evaluated after 13 days, 100=total damage, 0=no damage, read-out: Percentage damage caused to weed species, post-emergence, IPOHE. The method, boiled down:
as §2

The test system of assay [11] is Setaria faberi (SETFA). The assay is described as above. The conditions noted are these: 312 h, 1,000 g/ha, evaluated after 13 days, 100=total damage, 0=no damage, read-out: Percentage damage caused to weed species, post-emergence, SETFA. In short, it runs like this: as §2
Assay [12] relates to Solanum nigrum (SOLNI). The assay is described as above. The conditions noted are these: 312 h, 1,000 g/ha, evaluated after 13 days, 100=total damage, 0=no damage, read-out: Percentage damage caused to weed species, post-emergence, SOLNI. In short, it runs like this:
as §2

Take `COC(=O)c1nc(C2CC2)cc(NCc2ccco2)c1Cl` [Compound 26-83, 3-chloro-6-cyclopropyl-4-[(furan-2-ylmethyl)-amino]-pyridine-2-carboxylic acid methyl ester]: the pest or weed control at 1000 g/ha in assay [1] worked out at 40%; in assay [2] it was 100%; in [3], 20%; in [4] it was 100%; in the assay on Setaria faberi (SETFA) [5] it was 20%; in the assay on Solanum nigrum (SOLNI) [6] it was 100%. Besides, the pest or weed control at 1000 g/ha in [7] was 0%; in [8], 100%; in [9], 0%; in assay [10] it was 100%; in the assay on Setaria faberi (SETFA) [11], 0%; in the assay on Solanum nigrum (SOLNI) [12], 90%.
`C=Cc1c(NCc2ncccc2C)cc(Cl)nc1C(=O)OC` [Compound 33-12, 6-Chloro-3-ethenyl-4-[(3-methyl-pyridin-2-ylmethyl)-amino]-pyridine-2-carboxylic acid methyl ester]: the pest or weed control at 1000 g/ha in assay [1] is 70%; in assay [2] it was 100%; in assay [3], 80%; in [4], 100%; in the assay with Setaria faberi (SETFA) [5], 80%; in the assay on Solanum nigrum (SOLNI) [6], 100%. The pest or weed control at 1000 g/ha turned out to be 80% in assay [7]; 100% in [8]; 80% in assay [9]; 70% in [10]; 90% with Setaria faberi (SETFA) [11]; 90% with Solanum nigrum (SOLNI) [12].
For the compound `COC(=O)c1nc(Cl)cc(NCc2cccnc2)c1Cl` [Compound 78-2, 3,6-Dichloro-4-(pyridin-3-ylmethylamino)-pyridine-2-carboxylic acid methyl ester], the pest or weed control at 1000 g/ha came out at 40% in [1]; 100% in [2]; 20% in [3]; 90% in assay [4]; 50% with Setaria faberi (SETFA) [5]; 100% in the assay on Solanum nigrum (SOLNI) [6]. Further, the pest or weed control at 1000 g/ha in assay [7] worked out at 20%; in assay [8], 100%; in assay [9], 20%; in assay [10], 70%; with Setaria faberi (SETFA) [11], 50%; with Solanum nigrum (SOLNI) [12] it was 100%.
As to `COC(=O)c1nc(Cl)cc(NCc2ccco2)c1C1CC1` [Compound 26-7, 6-chloro-3-cyclopropyl-4-[(furan-2-ylmethyl)-amino]-pyridine-2-carboxylic acid methyl ester], the pest or weed control at 1000 g/ha in [1] turned out to be 10%; in assay [2], 60%; in assay [3], 10%; in [4] it was 70%; with Setaria faberi (SETFA) [5], 10%; in the assay on Solanum nigrum (SOLNI) [6] it was 80%. The pest or weed control at 1000 g/ha in assay [7] worked out at 0%; in assay [8], 40%; in assay [9], 0%; in assay [10], 30%; in the assay with Setaria faberi (SETFA) [11] it was 0%; with Solanum nigrum (SOLNI) [12], 70%.
With `COC(=O)c1nc(Cl)cc(NCc2ccc3c(c2)OCO3)c1Cl` [Compound 24-2, 3,6-Dichloro-4-[(3,4-methylenedioxy-phenylmethyl)-amino]-pyridine-2-carboxylic acid methyl ester], the pest or weed control at 1000 g/ha was found to be 10% in [1]; 100% in assay [2]; 0% in assay [3]; 80% in assay [4]; 70% in the assay with Setaria faberi (SETFA) [5]; 100% in the assay on Solanum nigrum (SOLNI) [6]. Further, the pest or weed control at 1000 g/ha in [7] was found to be 50%; in assay [8], 100%; in assay [9], 20%; in assay [10] it was 70%; with Setaria faberi (SETFA) [11] it was 80%; in the assay on Solanum nigrum (SOLNI) [12], 100%.
Turning to `COC(=O)c1nc(Cl)cc(NCc2cccs2)c1Cl` [Compound 75-2, 3,6-Dichloro-4-(thiophen-2-ylmethylamino)-pyridine-2-carboxylic acid methyl ester], the pest or weed control at 1000 g/ha in [1] worked out at 70%; in assay [2], 100%; in assay [3] it was 60%; in assay [4], 90%; in the assay on Setaria faberi (SETFA) [5] it was 80%; with Solanum nigrum (SOLNI) [6], 100%. Further, the pest or weed control at 1000 g/ha amounted to 60% in assay [7]; 100% in assay [8]; 70% in assay [9]; 70% in assay [10]; 80% in the assay on Setaria faberi (SETFA) [11]; 100% with Solanum nigrum (SOLNI) [12].
Consider `C=Cc1c(NCc2ccccc2)cc(Cl)nc1C(=O)OC` [Compound 2-12, 6-Chloro-3-ethenyl-4-phenylmethyl-amino-pyridine-2-carboxylic acid methyl ester], for which the pest or weed control at 1000 g/ha in assay [1] came out at 80%; in [2], 100%; in [3], 30%; in [4] it was 80%; in the assay on Setaria faberi (SETFA) [5], 80%; in the assay on Solanum nigrum (SOLNI) [6], 100%. Moreover, the pest or weed control at 1000 g/ha was 60% in [7]; 100% in assay [8]; 50% in assay [9]; 70% in assay [10]; 80% in the assay on Setaria faberi (SETFA) [11]; 100% in the assay on Solanum nigrum (SOLNI) [12].
For the compound `COC(=O)c1nc(-c2ccc(Cl)c(OC)c2F)cc(NCc2ccco2)c1Cl` [Compound 26-164, 3-chloro-6-(4-chloro-2-fluoro-3-methoxy-phenyl)-4-[(furan-2-ylmethyl)-amino]-pyridine-2-carboxylic acid methyl ester], the pest or weed control at 1000 g/ha in [1] amounted to 50%; in assay [2], 100%; in [3], 90%; in assay [4], 100%; with Setaria faberi (SETFA) [5] it was 90%; in the assay with Solanum nigrum (SOLNI) [6], 100%. The pest or weed control at 1000 g/ha in assay [7] was determined as 70%; in assay [8] it was 100%; in [9], 70%; in assay [10] it was 90%; in the assay with Setaria faberi (SETFA) [11], 90%; in the assay with Solanum nigrum (SOLNI) [12], 100%.
With `COC(=O)c1nc(Cl)cc(NCC2CCCO2)c1Cl` (stereo not drawn) [Compound 70-2, 3,6-Dichloro-4-(tetrahydrofuran-2-ylmethylamino)-pyridine-2-carboxylic acid methyl ester], the pest or weed control at 1000 g/ha in assay [1] was 30%; in assay [2] it was 100%; in assay [3] it was 20%; in assay [4], 70%; in the assay with Setaria faberi (SETFA) [5], 80%; with Solanum nigrum (SOLNI) [6], 100%. Moreover, the pest or weed control at 1000 g/ha in [7] turned out to be 40%; in assay [8] it was 100%; in assay [9], 30%; in assay [10], 70%; with Setaria faberi (SETFA) [11], 60%; with Solanum nigrum (SOLNI) [12], 100%.

The record behind these values is US20120100990A1, “4 -AMINOPICOLINATES AND THEIR USE AS HERBICIDES” (SYNGENTA CROP PROTECTION LLC, priority 2009, published 2012).
